Data taken from US6462081B1, “5-thia-ω-substituted phenyl-prostaglandin E derivatives, process for producing the same and drugs containing the same as the active ingredient” (Ono Pharmaceutical Co., Ltd., priority 1998, dated 2002).

How the values were obtained:
EP3α = target: T1, EP3α (Mus musculus, UniProt P30557); test: Binding assay using CHO cell membrane expressing prostanoid receptor subtype, [3H]-PGE2 competition; conditions: CHO cell membrane fraction, 2.5 nM [3H]-PGE2, 1 hour at room temperature, pH6.0
T1 construct: expressed in transfected cells; host or cells: CHO cells, membrane fraction
T1 sequence (P30557 1-365): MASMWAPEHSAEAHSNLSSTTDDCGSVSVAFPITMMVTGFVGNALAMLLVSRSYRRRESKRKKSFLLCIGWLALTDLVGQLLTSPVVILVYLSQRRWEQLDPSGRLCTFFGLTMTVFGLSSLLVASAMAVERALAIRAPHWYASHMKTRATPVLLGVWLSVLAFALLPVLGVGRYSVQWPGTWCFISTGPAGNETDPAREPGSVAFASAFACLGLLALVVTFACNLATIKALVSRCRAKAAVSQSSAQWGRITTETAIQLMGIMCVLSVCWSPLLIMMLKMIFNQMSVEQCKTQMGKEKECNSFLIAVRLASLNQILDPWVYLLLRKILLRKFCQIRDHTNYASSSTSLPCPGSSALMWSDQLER
Protocol: (§1) For example, in a standard laboratory test, such effects of the compound of the present invention were confirmed by binding assay using cell expressing the prostanoid receptor subtypes. (i) Binding assay using cell expressing the prostanoid receptor subtypes The preparation of membrane fraction was carried out according to the method of Sugimoto et al (J. Biol. Chem., 267, 6463-6466 (1992)), using CHO cell expressing prostanoid receptor subtype (mouse EP1, EP2, EP3, and EP4, and human IP).
(§2) The reaction solution (200 μl) containing membrane fraction (0.5 mg/ml), [^3H]-PGE2 was incubated for 1 hour at room temperature. The reaction was terminated by addition of 3 ml of ice-cold buffer. The mixture was rapidly filtered under reduced pressure through a glass filter (GF/B). The radioactivity associated with the filter was measured by liquid scintillation counter.
(§3) Kd and Bmax values were determined from Scatchard plots [Ann. N.Y. Acad. Sci., 51, 660 (1949)]. Non-specific binding was calculated as the amount bound in the presence of an excess (2.5 μM) of unlabeled PGE2. In the experiment for competition of specific [^3H]-PGE2 binding by the compounds of the present invention, [^3H]-PGE2 was added at a concentration of 2.5 nM and the compound of the present invention was added at various concentrations. The following buffer was used in all reactions. Buffer: 10 mM potassium phosphate (pH6.0), 1 mM EDTA, 10 mM MgCl2, 0.1 M NaCl
(§4) The dissociation constant Ki (μM) of each compound was calculated by the following equation.

mouse EP1 = target: T2, mouse EP1 (Mus musculus, UniProt P35375); test: as above; conditions: CHO cell membrane fraction, 2.5 nM [3H]-PGE2, 1 hour at room temperature, pH6.0
T2 construct: expressed in transfected cells; host or cells: CHO cells, membrane fraction
T2 sequence (P35375 1-405): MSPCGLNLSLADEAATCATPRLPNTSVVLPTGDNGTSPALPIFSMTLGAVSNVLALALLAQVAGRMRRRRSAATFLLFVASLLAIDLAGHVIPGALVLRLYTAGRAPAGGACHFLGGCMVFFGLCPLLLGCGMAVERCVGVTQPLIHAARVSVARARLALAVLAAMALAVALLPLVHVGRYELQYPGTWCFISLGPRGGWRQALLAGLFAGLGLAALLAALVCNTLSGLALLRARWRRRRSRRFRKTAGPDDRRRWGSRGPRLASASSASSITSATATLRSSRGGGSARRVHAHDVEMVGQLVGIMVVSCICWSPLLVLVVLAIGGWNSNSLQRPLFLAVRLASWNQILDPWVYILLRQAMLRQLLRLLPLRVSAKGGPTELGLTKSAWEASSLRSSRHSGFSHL
Protocol: as §1, §2, §3, §4

mouse EP4 = target: T3, mouse EP4 (Mus musculus, UniProt P32240); test: as above; conditions: CHO cell membrane fraction, 2.5 nM [3H]-PGE2, 1 hour at room temperature, pH6.0
T3 construct: expressed in transfected cells; host or cells: CHO cells, membrane fraction
T3 sequence (P32240 whole entry): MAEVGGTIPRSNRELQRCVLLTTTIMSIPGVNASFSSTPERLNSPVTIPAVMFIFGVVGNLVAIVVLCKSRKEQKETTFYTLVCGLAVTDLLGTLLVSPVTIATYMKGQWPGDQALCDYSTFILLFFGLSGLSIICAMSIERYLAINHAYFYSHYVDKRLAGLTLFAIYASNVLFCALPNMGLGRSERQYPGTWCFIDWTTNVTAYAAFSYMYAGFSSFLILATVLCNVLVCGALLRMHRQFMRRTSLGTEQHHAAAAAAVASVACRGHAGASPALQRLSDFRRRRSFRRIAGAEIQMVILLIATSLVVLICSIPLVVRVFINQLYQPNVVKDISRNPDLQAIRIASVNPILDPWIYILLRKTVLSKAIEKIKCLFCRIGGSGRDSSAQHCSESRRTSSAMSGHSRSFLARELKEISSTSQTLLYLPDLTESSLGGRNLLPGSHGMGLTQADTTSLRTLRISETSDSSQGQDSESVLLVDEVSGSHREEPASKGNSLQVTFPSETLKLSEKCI
Protocol: as §1, §2, §3, §4

rat = test: Toxicity: maximum tolerance dose by i.v. route in rat; format: in vivo
Protocol: The toxicity of the compounds of the formula (I) of the present invention is very low and therefore, it is confirmed that these compounds are safe for use as medicine. For example, the maximum tolerance dose of the compound of Example 1 by i.v. route in rat was 30 mg/kg body weight or more.

## Cc1cc(C[C@H](O)/C=C/[C@H]2[C@H](O)CC(=O)[C@@H]2CCSCCCC(=O)O)ccc1O [3 (1), (11α,13E,15α)-9-oxo-11,15-Dihydroxy-16-(3-methyl-4-hydroxyphenyl)-17,18,19,20-tetranor-5-thiaprost-13-enoic Acid]
EP3α
  Ki: 2.9 µM
Mouse EP1
  Ki: > 10 µM
Mouse EP4
  Ki: 0.0024 µM

## COCc1cccc(C[C@H](O)/C=C/[C@@H]2[C@@H](CCSCCCC(=O)O)[C@H](Cl)C[C@H]2O)c1 [3 (2), (9β,11α,13E,15α)-9-Chloro-11,15-dihydroxy-16-(3-methoxymethylphenyl)-17,18,19,20-tetranor-5-thiaprost-13-enoic Acid]
EP3α
  Ki: > 10 µM
Mouse EP1
  Ki: > 10 µM
Mouse EP4
  Ki: 0.0079 µM

## COCc1cccc(C[C@H](O)/C=C/[C@@H]2[C@@H](CCSCCCC(=O)O)[C@H](F)C[C@H]2O)c1 [3 (3), (9β,11α,13E,15α)-9-Fluoro-11,15-dihydroxy-16-(3-methoxymethylphenyl)-17,18,19,20-tetranor-5-thiaprost-13-enoic Acid]
EP3α
  Ki: 1.5 µM
Mouse EP1
  Ki: > 10 µM
Mouse EP4
  Ki: 0.018 µM

## CCCOCc1cccc(C[C@H](O)/C=C/[C@H]2[C@H](O)CC(=O)[C@@H]2CCSCCCC(=O)O)c1 [3 (5), (11α,13E,15α)-9-oxo-11,15-Dihydroxy-16-(3-n-propyloxymethylphenyl)-17,18,19,20-tetranor-5-thiaprost-13-enoic Acid]
EP3α
  Ki: 0.57 µM
Mouse EP1
  Ki: > 10 µM
Mouse EP4
  Ki: 0.015 µM

## COCc1cccc(C[C@H](O)/C=C/[C@H]2[C@H](O)CC(=O)[C@@H]2CCSCCCC(=O)OC)c1 [Example 1, (11α,13E,15α)-9-oxo-11,15-Dihydroxy-16-(3-methoxymethylphenyl)-17,18,19,20-tetranor-5-thiaprost-13-enoic Acid·Methyl Ester]
rat
  maximum tolerance dose: ≥ 30 mg/kg body weight

## COCc1cccc(C[C@H](O)/C=C/[C@H]2[C@H](O)CC(=O)[C@@H]2CCSCCCC(=O)O)c1 [Example 3, (11α,13E,15α)-9-oxo-11,15-Dihydroxy-16-(3-methoxymethylphenyl)-17,18,19,20-tetranor-5-thiaprost-13-enoic Acid]
EP3α
  Ki: 0.84 µM
Mouse EP1
  Ki: > 10 µM
Mouse EP4
  Ki: 0.0038 µM

## COCc1cccc(C[C@H](O)CC[C@H]2[C@H](O)CC(=O)[C@@H]2CCSCCCC(=O)O)c1 [Example 6, (11α,15α)-9-oxo-11,15-Dihydroxy-16-(3-methoxymethylphenyl)-17,18,19,20-tetranor-5-thiaprostanoic Acid]
EP3α
  Ki: 0.46 µM
Mouse EP1
  Ki: > 10 µM
Mouse EP4
  Ki: 0.0062 µM

## (11α,13E,15α)-9-oxo-11,15-Dihydroxy-16-(3-ethoxymethylphenyl)-17,18,19,20-tetranor-5-thiaprost-13-enoic Acid [3 (4)]
EP3α
  Ki: 0.5 µM
Mouse EP1
  Ki: > 10 µM
Mouse EP4
  Ki: 0.01 µM
